Measured values published in patent US11285140B2, “Piperidin-4-yl azetidine derivatives as JAK1 inhibitors” (Incyte Corporation, priority 2010, dated 2022).

Legend:
Assay type in all cases: biochemical
[1] = target: human JAK1 (a.a. 837-1142) (Homo sapiens, UniProt P23458); assay: In vitro JAK kinase assay (HTRF, phosphorylation of biotinylated peptide), JAK1; conditions: measured at 1 mM ATP
Experimental: (§1) Compounds herein were tested for inhibitory activity of JAK targets according to the following in vitro assay described in Park et al., Analytical Biochemistry 1999, 269, 94-104. The catalytic domains of human JAK1 (a.a. 837-1142), Jak2 (a.a. 828-1132) and Jak3 (a.a. 781-1124) with an N-terminal His tag were expressed using baculovirus in insect cells and purified. The catalytic activity of JAK1, JAK2 or JAK3 was assayed by measuring the phosphorylation of a biotinylated peptide. The phosphorylated peptide was detected by homogenous time resolved fluorescence (HTRF). […] Reactions were carried out at room temperature for 1 hr and then stopped with 20 μL 45 mM EDTA, 300 nM SA-APC, 6 nM Eu-Py20 in assay buffer (Perkin Elmer, Boston, Mass.). Binding to the Europium labeled antibody took place for 40 minutes and HTRF signal was measured on a Fusion plate reader (Perkin Elmer, Boston, Mass.).

[2] = target: human JAK1 (a.a. 837-1142); assay: as above; conditions: measured at 1 mM ATP; JAK2 IC50 / JAK1 IC50
Experimental: as §1

[3] = target: human Jak2 (a.a. 828-1132) (Homo sapiens (Human), UniProt O60674); assay: In vitro JAK kinase assay (HTRF, phosphorylation of biotinylated peptide), JAK2; conditions: measured at 1 mM ATP
Experimental: as §1

human Jak2 (a.a. 828-1132), sequence (O60674 828-1132): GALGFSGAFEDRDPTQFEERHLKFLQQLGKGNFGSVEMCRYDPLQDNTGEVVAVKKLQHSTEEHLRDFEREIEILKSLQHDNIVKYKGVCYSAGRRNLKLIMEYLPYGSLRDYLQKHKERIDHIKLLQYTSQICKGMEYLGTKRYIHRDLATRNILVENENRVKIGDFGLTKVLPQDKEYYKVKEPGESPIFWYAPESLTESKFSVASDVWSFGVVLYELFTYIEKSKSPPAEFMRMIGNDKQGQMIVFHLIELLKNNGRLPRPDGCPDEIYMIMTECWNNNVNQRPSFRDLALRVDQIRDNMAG

Compound: 4-{3-(cyanomethyl)-3-[3-(7H-pyrrolo[2,3- d]pyrimidin-4-yl)-1H-pyrrol-1- yl]azetidin-1-yl}-N-[4- (trifluoromethyl)pyridin-3-yl]piperidine- 1-carboxamide [Example 165]
- IC50 [1]: 0.005 to 0.02 µM
- IC50 Ratio JAK2/JAK1 [2]: 10.4
- IC50 [3]: 0.05 to 0.1 µM

Compound: 4-{3-(cyanomethyl)-3-[4-(7H-pyrrolo[2,3- d]pyrimidin-4-yl)-1H-pyrazol-1- yl]azetidin-1-yl}-N-(2,5-difluorophenyl) piperidine-1-carboxamide [Example 174]
- IC50 [1]: ≤ 0.005 µM
- IC50 Ratio JAK2/JAK1 [2]: 7.1
- IC50 [3]: ≤ 0.01 µM

Compound: 4-{3-(cyanomethyl)-3-[4-(7H-pyrrolo[2,3- d]pyrimidin-4-yl)-1H-pyrazol-1- yl]azetidin-1-yl}-N-(2-methylphenyl) piperidine-1-carboxamide [Example 185]
- IC50 [1]: ≤ 0.005 µM
- IC50 Ratio JAK2/JAK1 [2]: 9.5
- IC50 [3]: 0.01 to 0.05 µM

Compound: 4-{3-(cyanomethyl)-3-[4-(7H-pyrrolo[2,3- d]pyrimidin-4-yl)-1H-pyrazol-1- yl]azetidin-1-yl}-N-(3,5-difluorophenyl) piperidine-1-carboxamide [Example 175]
- IC50 [1]: ≤ 0.005 µM
- IC50 Ratio JAK2/JAK1 [2]: 3.6
- IC50 [3]: ≤ 0.01 µM

Compound: N#CCC1(n2cc(-c3ncnc4[nH]ccc34)cn2)CN(C2CCN(C(=O)C3Cc4ccccc4C3)CC2)C1 [Example 99, {1-[1-(2,3-dihydro-1H-inden-2-ylcarbonyl)piperidin-4-yl]-3-[4-(7H-pyrrolo[2,3-d]pyrimidin-4-yl)-1H-pyrazol-1-yl]azetidin-3-yl}acetonitrile]
- IC50 [1]: 0.005 to 0.02 µM
- IC50 Ratio JAK2/JAK1 [2]: 5.6
- IC50 [3]: 0.01 to 0.05 µM

Compound: N#CCC1(n2cc(-c3ncnc4[nH]ccc34)cn2)CN(C2CCN(Cc3ccc(F)cc3F)CC2)C1 [Example 217, {1-[1-(2,4-difluorobenzyl)piperidin-4-yl]-3-[4-(7H-pyrrolo[2,3-d]pyrimidin-4-yl)-1H-pyrazol-1-yl]azetidin-3-yl}acetonitrile]
- IC50 [1]: 0.005 to 0.02 µM
- IC50 Ratio JAK2/JAK1 [2]: 5.8
- IC50 [3]: 0.01 to 0.05 µM

Compound: CC(C)(C)C(=O)Nc1cc(CN2CCC(N3CC(CC#N)(n4cc(-c5ncnc6[nH]ccc56)cn4)C3)CC2)ccn1 [Example 235, N-{4-[(4-{3-(cyanomethyl)-3-[4-(7H-pyrrolo[2,3-d]pyrimidin-4-yl)-1H-pyrazol-1-yl]azetidin-1-yl}piperidin-1-yl)methyl]pyridin-2-yl}-2,2-dimethylpropanamide]
- IC50 [1]: 0.005 to 0.02 µM
- IC50 Ratio JAK2/JAK1 [2]: 2.5
- IC50 [3]: 0.01 to 0.05 µM
